Measured values from patent publication US9655884B2, “Antiparasitic use of isoxazoline compounds” (Intervet Inc., priority 2013, dated 2017).

Test system: adult fleas (C. felis)
Assay: In vitro membrane feeding exposure to assess flea reproduction
Design: species or system Ctenocephalides felis
Experimental: A membrane feeding method [Wade S E, Georgi J R. Survival and reproduction of artificially fed cat fleas, Ctenocephalides felis Bouché (Siphonaptera: Pulicidae). J Med Entomol 1988, 25: 186-190.] was modified to assess the impact of fluralaner exposure on flea reproduction. Defibrinated sheep blood was prepared in a series of dilutions with fluralaner to obtain concentrations between 50.0 and 0.09 ng/mL. These test solutions were prepared twice and each preparation was tested in duplicate resulting in a total of 4 replicates per concentration, along with a fluralaner negative solvent control (a solvent concentration equivalent to that of the highest concentrated fluralaner test solution) and an untreated control.
Unfed adult fleas (C. felis; 20 males and 20 females) were placed into a plastic unit that was then closed with a gauze lid. A grid inside the plastic unit divided the unit into 2 chambers, an upper chamber for flea feeding and a lower chamber for egg collection. Test or control blood preparations (2 ml) were placed in an artificial membrane closed glass tube that was then placed on the plastic unit as the food source. Feeding units were incubated (38° C. and 60% RH) for 10 days. Test and negative control blood preparations were freshly prepared and exchanged (on days 1, 3, 5, and 8) to permit continuous flea feeding. Fleas were transferred into fresh plastic units on Days 5 and 8 to facilitate egg collection. Collected eggs were mixed with flea nourishment medium and incubated (28° C. and 80% RH) in darkness for 22 (±3) days to enable flea development. Parameters recorded were flea survival, oviposition control, egg hatchability, pupa control, flea-emergence control and reproduction inhibition.

[1] = eggs of parent fleas fed 0.09 ng/mL in blood, exposure day 9
[2] = eggs of parent fleas fed 0.09 ng/mL in blood, exposure day 10
[3] = eggs of parent fleas fed 0.19 ng/mL in blood, exposure day 3
[4] = eggs of parent fleas fed 0.19 ng/mL in blood, exposure day 4
[5] = eggs of parent fleas fed 0.19 ng/mL in blood, exposure day 5
[6] = eggs of parent fleas fed 0.19 ng/mL in blood, exposure day 8
[7] = eggs of parent fleas fed 0.19 ng/mL in blood, exposure day 9
[8] = eggs of parent fleas fed 0.19 ng/mL in blood, exposure day 10
[9] = eggs of parent fleas fed 0.39 ng/mL in blood, exposure day 3
[10] = eggs of parent fleas fed 0.39 ng/mL in blood, exposure day 4
[11] = eggs of parent fleas fed 0.39 ng/mL in blood, exposure day 5
[12] = eggs of parent fleas fed 0.39 ng/mL in blood, exposure day 8
[13] = eggs of parent fleas fed 0.39 ng/mL in blood, exposure day 9
[14] = eggs of parent fleas fed 0.39 ng/mL in blood, exposure day 10
[15] = eggs of parent fleas fed 0.78 ng/mL in blood, exposure day 3
[16] = eggs of parent fleas fed 0.78 ng/mL in blood, exposure day 4
[17] = eggs of parent fleas fed 0.78 ng/mL in blood, exposure day 5
[18] = eggs of parent fleas fed 0.78 ng/mL in blood, exposure day 8
[19] = eggs of parent fleas fed 0.78 ng/mL in blood, exposure day 9
[20] = eggs of parent fleas fed 0.78 ng/mL in blood, exposure day 10
[21] = eggs of parent fleas fed 1.56 ng/mL in blood, exposure day 3
[22] = eggs of parent fleas fed 1.56 ng/mL in blood, exposure day 4
[23] = eggs of parent fleas fed 1.56 ng/mL in blood, exposure day 5
[24] = eggs of parent fleas fed 1.56 ng/mL in blood, exposure day 8
[25] = eggs of parent fleas fed 1.56 ng/mL in blood, exposure day 9
[26] = eggs of parent fleas fed 1.56 ng/mL in blood, exposure day 10
[27] = eggs of parent fleas fed 3.13 ng/mL in blood, exposure day 3
[28] = eggs of parent fleas fed 3.13 ng/mL in blood, exposure day 4
[29] = eggs of parent fleas fed 3.13 ng/mL in blood, exposure day 5
[30] = eggs of parent fleas fed 3.13 ng/mL in blood, exposure day 8
[31] = eggs of parent fleas fed 3.13 ng/mL in blood, exposure day 9
[32] = eggs of parent fleas fed 3.13 ng/mL in blood, exposure day 10

## Cc1cc(C2=NOC(c3cc(Cl)cc(Cl)c3)(C(F)(F)F)C2)ccc1C(=O)NCC(=O)NCC(F)(F)F (centres unmarked) [fluralaner, 4-[5-(3,5-Dichlorophenyl)-5-trifluoromethyl-4,5-dihydroisoxazol-3-yl]-2-methyl-N-[(2,2,2-trifluoro-ethylcarbamoyl)-methyl]-benzamide]
Eggs of parent fleas fed 0.09 ng/mL in blood, exposure day 8
  Pupal Development Control: 0%
[1]
  Larval Emergence: yes
  Pupal Development Control: 5.9%
[2]
  Larval Emergence: yes
  Pupal Development Control: 2.9%
Eggs of parent fleas fed 0.19 ng/mL in blood, arithmetic mean of exposure days
  Pupal Development Control: 3.1%
[3]
  Larval Emergence: yes
  Pupal Development Control: 8.8%
[4]
  Larval Emergence: yes
  Pupal Development Control: 0.2%
[5]
  Larval Emergence: yes
  Pupal Development Control: 6.8%
[6]
  Larval Emergence: yes
  Pupal Development Control: 0%
[7]
  Larval Emergence: yes
  Pupal Development Control: 2.7%
[8]
  Larval Emergence: yes
  Pupal Development Control: 0%
Eggs of parent fleas fed 0.39 ng/mL in blood, arithmetic mean of exposure days
  Pupal Development Control: 3.6%
[9]
  Larval Emergence: yes
  Pupal Development Control: 9.8%
[10]
  Larval Emergence: yes
  Pupal Development Control: 0%
[11]
  Larval Emergence: yes
  Pupal Development Control: 1.5%
[12]
  Larval Emergence: yes
  Pupal Development Control: 3.3%
[13]
  Larval Emergence: yes
  Pupal Development Control: 6.3%
[14]
  Larval Emergence: yes
  Pupal Development Control: 0.8%
Eggs of parent fleas fed 0.78 ng/mL in blood, arithmetic mean of exposure days
  Pupal Development Control: 12.1%
[15]
  Larval Emergence: yes
  Pupal Development Control: 7.5%
[16]
  Larval Emergence: yes
  Pupal Development Control: 11.4%
[17]
  Larval Emergence: yes
  Pupal Development Control: 16.7%
[18]
  Larval Emergence: yes
  Pupal Development Control: 10.8%
[19]
  Larval Emergence: yes
  Pupal Development Control: 11.9%
[20]
  Larval Emergence: yes
  Pupal Development Control: 14.5%
Eggs of parent fleas fed 1.56 ng/mL in blood, arithmetic mean of exposure days
  Pupal Development Control: 35.1%
[21]
  Larval Emergence: yes
  Pupal Development Control: 35.3%
[22]
  Larval Emergence: yes
  Pupal Development Control: 36.3%
[23]
  Larval Emergence: yes
  Pupal Development Control: 34.6%
[24]
  Larval Emergence: yes
  Pupal Development Control: 35.5%
[25]
  Larval Emergence: yes
  Pupal Development Control: 41.6%
[26]
  Larval Emergence: yes
  Pupal Development Control: 27.2%
Eggs of parent fleas fed 3.13 ng/mL in blood, arithmetic mean of exposure days
  Pupal Development Control: 64.5%
[27]
  Larval Emergence: yes
  Pupal Development Control: 66.3%
[28]
  Larval Emergence: yes
  Pupal Development Control: 68.9%
[29]
  Larval Emergence: yes
  Pupal Development Control: 61.7%
[30]
  Larval Emergence: yes
  Pupal Development Control: 70.3%
[31]
  Larval Emergence: yes
  Pupal Development Control: 62.1%
[32]
  Larval Emergence: yes
  Pupal Development Control: 57.4%
Eggs of parent fleas fed 6.25 ng/mL in blood, arithmetic mean of exposure days
  Pupal Development Control: 88.7%
